How the values were obtained:
[1] = target: T1, HCN3 (Homo sapiens, UniProt Q9P1Z3); assay: HCN3 automated patch clamp current inhibition assay (Ionworks Barracuda); type: cell-based; settings: HEK-293 cells stably expressing HCN3; current inhibition during a hyperpolarizing pulse of -100 mV
T1 construct: expressed in transfected cells
T1 sequence (Q9P1Z3 1-774): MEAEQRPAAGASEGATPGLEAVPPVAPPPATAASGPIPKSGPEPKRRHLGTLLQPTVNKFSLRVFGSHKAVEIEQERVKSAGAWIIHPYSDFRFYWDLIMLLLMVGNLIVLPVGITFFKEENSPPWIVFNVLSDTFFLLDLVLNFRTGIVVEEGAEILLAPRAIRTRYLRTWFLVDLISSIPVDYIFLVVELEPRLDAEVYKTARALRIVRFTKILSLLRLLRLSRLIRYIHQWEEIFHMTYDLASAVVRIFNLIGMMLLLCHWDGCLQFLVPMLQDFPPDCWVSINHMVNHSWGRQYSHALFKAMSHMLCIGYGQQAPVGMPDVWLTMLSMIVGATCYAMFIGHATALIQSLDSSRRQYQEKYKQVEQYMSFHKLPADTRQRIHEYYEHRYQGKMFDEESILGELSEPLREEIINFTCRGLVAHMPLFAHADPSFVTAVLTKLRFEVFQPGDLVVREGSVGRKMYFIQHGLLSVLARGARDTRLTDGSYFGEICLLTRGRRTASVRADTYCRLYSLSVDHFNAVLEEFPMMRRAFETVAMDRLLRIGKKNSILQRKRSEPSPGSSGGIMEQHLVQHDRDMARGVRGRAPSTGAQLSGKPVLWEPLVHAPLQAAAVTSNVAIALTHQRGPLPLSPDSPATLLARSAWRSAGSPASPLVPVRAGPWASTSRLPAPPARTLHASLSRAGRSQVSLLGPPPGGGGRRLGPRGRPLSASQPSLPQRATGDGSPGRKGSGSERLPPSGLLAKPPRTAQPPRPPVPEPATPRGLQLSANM
Experimental: (§1) In vitro, high-throughput cellular electrophysiology was employed to detect voltage- and use-dependence of compounds in single concentration screening and IC50 determination for library and medicinal chemistry profiling compounds in 384 well plates.
(§2) Cell cultures were maintained in DMEM/F12 cell growth media containing FBS and appropriate antibiotics at 37° C., 5% CO2 for a maximum of 20 passages. At a time point of 40-72 hours prior to assay, the expression of HCN protein in the cells is induced by addition of tetracyclin. Cells may be incubated at 27° C. for 2-24 hours of induction. […] Cells were harvested at 80% confluency and resuspended in extracellular buffer and added to wells. A freshly prepared Escin solution was added to intracellular buffer and applied to establish whole cell recording via perforated patch clampling by APC.
(§3) Currents through activated channels were measured directly by APC by employing hyperpolarizing voltage steps. The activation window was increased and stabilized by the addition of cell permeable Br-cAMP. Baselines were established for both use- and voltage-dependence protocols using a −30 mV holding potential and multiple test pulses at −100 mV or by 20 mV steps from −120 to 0 mV, respectively. Test compounds were added after baseline recordings followed by a 10 min incubation, voltage-dependency protocol recording, and use-dependency recording. Data was corrected for baseline and rundown (well based) and normalized for % inhibition (plate based). Five previously reported HCN inhibitors of varying potencies and selectivities and zatebradine were used for run to run and plate to plate quality controls. […] Percent inhibition was analysed at −80, −100, −120 mV of the voltage-dependency protocol and at pulse 0 and 50 of the use-dependency protocols. Selectivity was assessed against HCN2, HCN3, and HCN4 overexpressing cell lines using similar methods. As HCN4 has a slower activation than the other HCN channels, activation was extended to achieve steady state activation.

[2] = target: T2, HCN1 (Homo sapiens, UniProt O60741); assay: HCN1 automated patch clamp current inhibition assay (Ionworks Barracuda); type: cell-based; settings: HEK-293 cells stably expressing HCN1; current inhibition during a hyperpolarizing pulse of -100 mV
T2 construct: expressed in transfected cells
T2 sequence (O60741 1-890): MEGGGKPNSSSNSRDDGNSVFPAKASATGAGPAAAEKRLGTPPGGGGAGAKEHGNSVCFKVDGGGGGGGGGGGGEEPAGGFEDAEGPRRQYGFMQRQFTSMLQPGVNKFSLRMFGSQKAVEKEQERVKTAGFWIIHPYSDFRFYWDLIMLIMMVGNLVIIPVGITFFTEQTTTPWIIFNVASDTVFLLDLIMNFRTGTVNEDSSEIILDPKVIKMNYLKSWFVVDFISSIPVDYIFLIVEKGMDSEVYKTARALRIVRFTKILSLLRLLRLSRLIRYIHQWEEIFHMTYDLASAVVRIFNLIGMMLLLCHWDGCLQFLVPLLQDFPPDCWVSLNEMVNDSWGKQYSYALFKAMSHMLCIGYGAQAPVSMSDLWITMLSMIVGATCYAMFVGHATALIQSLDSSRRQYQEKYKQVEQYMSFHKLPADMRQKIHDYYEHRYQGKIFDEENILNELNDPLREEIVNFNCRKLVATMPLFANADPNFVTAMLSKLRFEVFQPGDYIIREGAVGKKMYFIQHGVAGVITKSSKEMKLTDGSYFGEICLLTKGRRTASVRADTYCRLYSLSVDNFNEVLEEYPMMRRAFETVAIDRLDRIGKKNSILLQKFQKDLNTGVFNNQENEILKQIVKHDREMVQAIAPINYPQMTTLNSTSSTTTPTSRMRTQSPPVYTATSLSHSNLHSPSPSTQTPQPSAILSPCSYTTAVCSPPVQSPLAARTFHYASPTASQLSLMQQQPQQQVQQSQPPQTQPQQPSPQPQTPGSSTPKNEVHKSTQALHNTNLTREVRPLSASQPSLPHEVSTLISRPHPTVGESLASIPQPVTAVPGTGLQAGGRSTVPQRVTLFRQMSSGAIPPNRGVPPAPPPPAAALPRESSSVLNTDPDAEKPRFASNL
Experimental: as §1, §2, §3

Row | SMILES | IC50 [1] [µM] | IC50 [2] [µM]
1 | Cc1ccc(-n2c(C(N)=O)nc(C#Cc3ccnc(Cl)c3C)c2C)cn1 [Example 1, 4-((2-Chloro-3-methylpyridin-4-yl)ethynyl)-5-methyl-1-(6-methylpyridin-3-yl)-1H-imidazole-2-carboxamide] | > 40 | 0.159
2 | Cc1ccc(-n2c(C(N)=O)nc(C#Cc3ccnc(Cl)c3F)c2C)cn1 [Example 2, 4-((2-Chloro-3-fluoropyridin-4-yl)ethynyl)-5-methyl-1-(6-methylpyridin-3-yl)-1H-imidazole-2-carboxamide] | > 40 | 0.173
3 | Cc1ccc(-n2c(C(N)=O)nc(C#Cc3csc(Cl)c3)c2C)cn1 [Example 3, 4-[2-(5-Chlorothiophen-3-yl)ethynyl]-5-methyl-1-(6-methylpyridin-3-yl)imidazole-2-carboxamide] | 25.7 | 0.1
4 | Cc1ccc(-n2c(C(N)=O)nc(C#Cc3cccc(Cl)c3)c2C)cn1 [Example 4, 4-[2-(3-Chlorophenyl)ethynyl]-5-methyl-1-(6-methyl-3-pyridyl)imidazole-2-carboxamide] | 32.8 | 0.225
5 | Cc1ccc(-n2c(C(N)=O)nc(C#Cc3ccnc(Cl)c3)c2C)cn1 [Example 6, 4-(2-Chloro-pyridin-4-ylethynyl)-5-methyl-1-(6-methyl-pyridin-3-yl)-1H-imidazole-2-carboxylic Acid Amide] | > 40 | 0.26
6 | COc1cccc(C#Cc2nc(C(N)=O)n(-c3ccc(C)nc3)c2C)c1 [Example 8, 4-((3-Methoxyphenyl)ethynyl)-5-methyl-1-(6-methylpyridin-3-yl)-1H-imidazole-2-carboxamide] | 36.4 | 0.46
7 | Cc1cccc(C#Cc2nc(C(N)=O)n(-c3ccc(C)nc3)c2C)c1 [Example 10, 5-Methyl-1-(6-methylpyridin-3-yl)-4-(m-tolylethynyl)-1H-imidazole-2-carboxamide] | > 40 | 0.579
8 | COc1ccc(-n2c(C(N)=O)nc(C#Cc3ccnc(Cl)c3C)c2C)cn1 [Example 27, 4-[2-(2-Chloro-3-methyl-4-pyridyl)ethynyl]-1-(6-methoxy-3-pyridyl)-5-methyl-imidazole-2-carboxamide] | 38.4 | 0.051
9 | Cc1ccc(-n2c(C(N)=O)cc(C#Cc3ccnc(Cl)c3)c2C)cn1 [Example 31, 4-[2-(2-Chloro-4-pyridyl)ethynyl]-5-methyl-1-(6-methyl-3-pyridyl)pyrrole-2-carboxamide] | 23.5 | 0.231
10 | Cc1ccc(-n2c(C(N)=O)nc(C#Cc3ccnc(Cl)c3)c2C)cc1 [Example 38, 4-[2-(2-Chloro-4-pyridyl)ethynyl]-5-methyl-1-(p-tolyl)imidazole-2-carboxamide] | > 40 | 0.232
11 | Cc1c(C#Cc2ccnc(Cl)c2)nc(C(N)=O)n1-c1ccc(Cl)cc1 [Example 39, 1-(4-Chlorophenyl)-4-((2-chloropyridin-4-yl)ethynyl)-5-methyl-1H-imidazole-2-carboxamide] | > 40 | 0.383
12 | NC(=O)c1nc(C#Cc2ccnc(Cl)c2)cn1-c1ccc(F)cc1 [Example 42, 4-(2-Chloro-pyridin-4-ylethynyl)-1-(4-fluoro-phenyl)-1H-imidazole-2-carboxylic Acid Amide] | > 40 | 2.52

Other lines, results leading:

Row | IC50 [1] [µM] | IC50 [2] [µM] | SMILES
13 | > 40 | 0.24 | Cc1ccc(-n2c(C(N)=O)nc(C#Cc3cccc(C#N)c3)c2C)cn1 [Example 5, 4-((3-Cyanophenyl)ethynyl)-5-methyl-1-(6-methylpyridin-3-yl)-1H-imidazole-2-carboxamide]
14 | 2.4 | 0.303 | Cc1cnc(-n2c(C(N)=O)nc(C#Cc3ccnc(Cl)c3C)c2C)cn1 [Example 23, 4-[2-(2-Chloro-3-methyl-4-pyridyl)ethynyl]-5-methyl-1-(5-methylpyrazin-2-yl)imidazole-2-carboxamide]
15 | > 40 | 0.241 | Cc1c(C#Cc2nc(C(N)=O)n(-c3ccc(Cl)nc3)c2C)ccnc1Cl [Example 26, 4-[2-(2-Chloro-3-methyl-4-pyridyl)ethynyl]-1-(6-chloro-3-pyridyl)-5-methyl-imidazole-2-carboxamide]
16 | > 40 | 0.192 | Cc1ccc(-n2c(C(N)=O)nc(C#Cc3ccnc(Cl)c3C)c2C)nc1 [Example 28, 4-[2-(2-Chloro-3-methyl-4-pyridyl)ethynyl]-5-methyl-1-(5-methyl-2-pyridyl)imidazole-2-carboxamide]
17 | > 40 | 0.429 | Cc1ccc(-c2c(C(N)=O)nc(C#Cc3ccnc(Cl)c3)n2C)cn1 [Example 32, 2-[2-(2-Chloro-4-pyridyl)ethynyl]-1-methyl-5-(6-methyl-3-pyridyl)imidazole-4-carboxamide]

Reference: US12528784B2, “Alkynyl-(heteroaryl)-carboxamide HCN1 inhibitors” (Hoffmann-La Roche Inc., priority 2019, dated 2026)
